# Tests used:
# [1] = Inhibition of Xenopus laevis aurora B (60 to 361 residues)/INCENP
# [2] = tested on: HCT-116; test: Antitumor activity against human HCT116 cells xenografted in mouse assessed as inhibition of tumor growth at 15 to 60 mg/kg, po; type: functional
# [3] = Growth inhibition of in human BON1 cells incubated for 72 hrs; type: functional, cell-based
# [4] = Growth inhibition of in human QGP1 cells incubated for 72 hrs; type: functional, cell-based; conditions: QGP-1, 72 h
# [5] = Growth inhibition of in human MIP101 cells incubated for 72 hrs; type: functional, cell-based
# [6] = tested on: HL-60; test: Antitumor activity against human HL60 cells xenografted in rat assessed as inhibition of tumor growth at 25 mg/kg, iv bid; type: functional; conditions: HL-60, iv, read-out: TGI
# [7] = Growth inhibition of in human myeloma cells; type: functional, cell-based
# [8] = Half life in fasted rat at 5 mg/kg administered as single dose by orogastric gavage by LC-MS/MS analysis; type: ADME, organism-based; conditions: in vivo, po
# [9] = Oral bioavailability in fasted rat at 5 mg/kg administered as single dose by orogastric gavage by LC-MS/MS analysis; type: ADME, organism-based; conditions: in vivo
# [10] = Oral bioavailability in fasted mouse at 5 mg/kg administered as single dose by orogastric gavage by LC-MS/MS analysis; type: ADME, organism-based; conditions: in vivo
# [11] = target: Aurora kinase C (Homo sapiens, UniProt Q9UQB9); test: Inhibition of Aurora C kinase (unknown origin)
# [12] = target: Aurora kinase B (Homo sapiens, UniProt Q96GD4); test: Inhibition of recombinant aurora B (unknown origin)
# [13] = Half life in fasted dog at 2 mg/kg administered as single dose by orogastric gavage by LC-MS/MS analysis; type: ADME, organism-based, Canis lupus familiaris; conditions: in vivo, po
# [14] = Oral bioavailability in fasted dog at 2 mg/kg administered as single dose by orogastric gavage by LC-MS/MS analysis; type: ADME, organism-based, Canis lupus familiaris; conditions: in vivo
# [15] = Half life in fasted mouse at 5 mg/kg administered as single dose by orogastric gavage by LC-MS/MS analysis; type: ADME, organism-based; conditions: in vivo, po
# [16] = Oral bioavailability in fasted monkey at 2 mg/kg administered as single dose by orogastric gavage by LC-MS/MS analysis; type: ADME, organism-based, Macaca mulatta; conditions: rhesus monkey, in vivo
# [17] = Half life in fasted monkey at 2 mg/kg administered as single dose by orogastric gavage by LC-MS/MS analysis; type: ADME, organism-based, Macaca mulatta; conditions: rhesus monkey, in vivo, po
# [18] = target: T1, Aurora kinase B/Inner centromere protein (Homo sapiens) (UniProt Q96GD4+Q9NQS7)
# Description: Inhibition of human Aurora B/INCENP assessed as dissociation half life pre-incubated for 30 mins before 5-FAM-PKAtide substrate addition and measured after 120 mins
# [19] = target: Aurora kinase A (Homo sapiens, UniProt O14965); test: Inhibition of Aurora A kinase (unknown origin)
# [20] = target: T2, Aurora kinase B/Inner centromere protein (Homo sapiens, UniProt Q96GD4); test: Inhibition of Aurora B/INCENP (unknown origin) pre-incubated for 1 hr followed by FL-PKAtide substrate and ATP addition; type: protein-complex assay
# [21] = target: T2, Aurora kinase B/Inner centromere protein; test: Inhibition of Aurora B/INCENP (unknown origin) assessed as affinity constant pre-incubated for 1 hr followed by FL-PKAtide substrate and ATP addition; type: protein-complex assay
# [22] = target: T1, Aurora kinase B/Inner centromere protein (Homo sapiens); test: Inhibition of Aurora B/INCENP (unknown origin) assessed as inhibitor-enzyme complex half life pre-incubated for 1 hr followed by FL-PKAtide substrate and ATP addition; type: protein-complex assay
# T2 sequence (Q96GD4 whole entry): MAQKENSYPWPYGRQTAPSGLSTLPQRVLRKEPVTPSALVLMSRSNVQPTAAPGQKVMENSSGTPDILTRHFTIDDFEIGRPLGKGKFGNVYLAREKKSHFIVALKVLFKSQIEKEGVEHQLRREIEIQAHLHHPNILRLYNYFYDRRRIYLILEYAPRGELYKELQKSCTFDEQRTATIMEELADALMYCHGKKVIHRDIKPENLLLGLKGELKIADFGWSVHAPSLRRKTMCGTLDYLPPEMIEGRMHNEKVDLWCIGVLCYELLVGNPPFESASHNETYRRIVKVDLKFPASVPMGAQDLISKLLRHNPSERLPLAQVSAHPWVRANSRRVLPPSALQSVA
# T2 sequence (Q9NQS7 whole entry, further chain): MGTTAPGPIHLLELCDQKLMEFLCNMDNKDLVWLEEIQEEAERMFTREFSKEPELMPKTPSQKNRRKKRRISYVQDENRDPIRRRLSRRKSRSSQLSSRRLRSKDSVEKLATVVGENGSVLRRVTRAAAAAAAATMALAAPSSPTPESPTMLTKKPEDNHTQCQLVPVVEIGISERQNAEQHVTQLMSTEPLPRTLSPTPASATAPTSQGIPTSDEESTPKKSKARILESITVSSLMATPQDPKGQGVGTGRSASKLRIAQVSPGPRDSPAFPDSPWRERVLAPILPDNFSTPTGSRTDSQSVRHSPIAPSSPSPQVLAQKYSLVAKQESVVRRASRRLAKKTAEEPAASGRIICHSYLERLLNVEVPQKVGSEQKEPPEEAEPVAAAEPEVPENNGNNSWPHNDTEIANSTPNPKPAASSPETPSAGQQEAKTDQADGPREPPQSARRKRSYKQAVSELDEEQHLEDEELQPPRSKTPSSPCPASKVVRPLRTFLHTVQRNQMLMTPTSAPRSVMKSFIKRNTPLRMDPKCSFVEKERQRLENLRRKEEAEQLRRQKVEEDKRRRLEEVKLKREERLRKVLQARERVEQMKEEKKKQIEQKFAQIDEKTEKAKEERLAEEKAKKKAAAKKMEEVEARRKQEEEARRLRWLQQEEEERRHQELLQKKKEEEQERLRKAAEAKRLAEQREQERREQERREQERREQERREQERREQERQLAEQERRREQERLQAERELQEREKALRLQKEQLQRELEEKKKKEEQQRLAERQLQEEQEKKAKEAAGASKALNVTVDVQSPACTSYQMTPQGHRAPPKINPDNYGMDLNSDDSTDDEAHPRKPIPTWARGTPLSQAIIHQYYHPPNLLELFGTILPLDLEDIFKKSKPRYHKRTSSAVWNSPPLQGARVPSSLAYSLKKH
# Sequence of Aurora kinase C (Q9UQB9 whole entry): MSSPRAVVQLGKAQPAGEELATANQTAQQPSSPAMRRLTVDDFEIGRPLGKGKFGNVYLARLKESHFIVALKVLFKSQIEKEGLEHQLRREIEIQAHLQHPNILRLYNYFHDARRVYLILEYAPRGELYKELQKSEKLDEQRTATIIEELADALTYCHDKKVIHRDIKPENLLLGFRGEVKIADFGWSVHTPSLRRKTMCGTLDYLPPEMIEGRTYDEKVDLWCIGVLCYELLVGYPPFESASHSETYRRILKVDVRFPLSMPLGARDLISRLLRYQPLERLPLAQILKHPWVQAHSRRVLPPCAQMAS
# Sequence of Aurora kinase A (O14965 whole entry): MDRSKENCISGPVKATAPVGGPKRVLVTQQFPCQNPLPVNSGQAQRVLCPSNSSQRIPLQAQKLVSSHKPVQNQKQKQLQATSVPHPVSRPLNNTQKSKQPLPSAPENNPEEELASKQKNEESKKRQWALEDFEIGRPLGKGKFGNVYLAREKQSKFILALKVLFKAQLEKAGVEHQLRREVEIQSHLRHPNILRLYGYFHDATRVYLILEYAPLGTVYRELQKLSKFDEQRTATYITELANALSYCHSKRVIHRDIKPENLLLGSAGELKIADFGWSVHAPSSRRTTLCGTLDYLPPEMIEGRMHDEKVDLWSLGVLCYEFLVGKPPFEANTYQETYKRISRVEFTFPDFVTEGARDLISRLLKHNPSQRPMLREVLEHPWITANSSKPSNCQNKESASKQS
# Sequence of Aurora kinase B (Q96GD4 whole entry): as the sequence (Q96GD4 whole entry) above
structure (smiles),measurement,setting,value
CCS(=O)(=O)Nc1ccc2c(c1)/C(=C(/Nc1ccc(CN3CCCCC3)cc1)c1ccccc1)C(=O)N2 [HESPERADIN],IC50,[1],250 nM
CCc1cccc(CC)c1NC(=O)N1Cc2[nH]nc(NC(=O)c3ccc(N4CCN(C)CC4)cc3)c2C1 [PHA-680632],TGI,[2],70%
COc1cc2c(Nc3ccc(NC(=O)c4ccccc4)cc3)ncnc2cc1OCCCN1CCOCC1,IC50,[3],3000 nM
same,IC50,[4],900 nM
same,IC50,[5],3000 nM
CO[C@@H](C(=O)N1Cc2[nH]nc(NC(=O)c3ccc(N4CCN(C)CC4)cc3)c2C1)c1ccccc1 [DANUSERTIB],inhibition in vivo at 25 mg/kg,[6],75%
Cc1cc(Nc2cc(N3CCN(C)CC3)nc(/C=C/c3ccccc3)n2)n[nH]1 [ENMD-2076],IC50,[7],2990 to 7060 nM
Cc1csc(-c2nnc(Nc3ccc(Oc4ncccc4-c4ccnc(N)n4)cc3)c3ccccc23)c1 [AMG-900],half-life,[8],0.6 to 2.4 h
same,bioavailability,[9],31 to 107%
same,bioavailability,[10],31 to 107%
same,IC50,[11],1 nM
same,IC50,[12],4 nM
same,half-life,[13],0.6 to 2.4 h
same,bioavailability,[14],31 to 107%
same,half-life,[15],0.6 to 2.4 h
same,bioavailability,[16],31 to 107%
same,half-life,[17],0.6 to 2.4 h
CCn1cc(-c2ccnc3[nH]c(-c4cccc(CN(C)C)c4)cc23)c(-c2ccc(NC(=O)N(C)C)cc2)n1,T1/2,[18],8 h
O=C1c2[nH]c3cc(-c4ccco4)nn3c(=O)c2CN1Cc1ccccc1,IC50,[19],560 nM
CCS(=O)(=O)c1cccc(-c2cc(C(=O)NC3CCN(C)CC3)c(C)c3[nH]c4ncc(C)cc4c23)c1 [TAK-901],IC50,[20],15 nM
same,Ki,[21],0.02 nM
same,T1/2,[22],15.3 h
